From patent US20190031717A1, “MULTI-FUNCTIONAL FUSION POLYPEPTIDE, PREPARATION METHOD THEREOF, AND APPLICATION OF SAME” (NANJING ANJI BIOLOGICAL TECHNOLOGY CO., LTD, priority 2016, published 2019)

Legend:
[1] = test system: A549 cells induced by TGF-β1 (lung fibrosis model); assay: Hydroxyproline content in TGF-β1-induced A549 pulmonary fibrosis cell model; type: cell-based, human; conditions: for Hydroxyproline Content Inhibition Rate in the Pulmonary Fibrosis Model: 48 hours
Experimental: Human non-small cell lung cancer cells A549 were cultured in DMEM medium containing 10% (volume fraction) fetal bovine serum, cultured in a carbon dioxide incubator with a volume fraction of 5% at 37° C., and changed once every other day, depending on cell density. A549 cells in logarithmic growth phase were digested with 0.25% trypsin to prepare a cell suspension, adjusted to a cell concentration of 1×10^9 cells/L, and seeded at a density of 4×10^5 cells/cm2 in a cell culture dish of 90 cm^2. The cells were randomly divided into two groups: (1) control group: cultured in DMEM containing 10% (volume fraction) fetal bovine serum; (2) model group: containing 10% (volume fraction) fetal bovine serum, transforming growth factor (TGF-β1, final concentration 5 μg/L) was cultured in DMEM. The cells were cultured at 37° C. in a volumetric 5% carbon dioxide incubator, and changed every other day, depending on the cell density. Cell morphology was observed daily using an inverted microscope to determine when the model was established. When A549 cells are changed from the cobblestone shape of the original epithelial cells to the long spindle shape of the interstitial cells, the modeling is successfully established.
After 48 hours of addition of the polypeptides, the cells of the control group, the model group, and the administration group were collected for subsequent measurement of molecular markers related to pulmonary fibrosis.
Hydroxyproline accounts for 13.4% of collagen, so the content of hydroxyproline can reflect the accumulation of collagen during pulmonary fibrosis, which in turn reflects the degree of pulmonary fibrosis.
Prepare citric acid buffer: 120 g of sodium citrate, 12 mL of glacial acetic acid, 46 g of citric acid, 34 g of sodium hydroxide, dissolved in distilled water, adjust the pH to 6.0, and then dilute to 1000 mL.
Prepare 0.05 mol/L chloramine T solution: weigh 7.05 g of chloramine T, dissolve in 100 mL of distilled water, then add 150 mL of ethylene glycol, and add 250 mL of citric acid buffer to mix well.
Prepare p-dimethylaminobenzaldehyde: Reagent A: Take 20 mL of absolute ethanol, slowly add 2.74 mL of concentrated sulfuric acid; Reagent B: Take 12.0 g of p-dimethylaminobenzaldehyde, slowly add 40 mL of absolute ethanol. Heat in a water bath to completely dissolve and cool to room temperature, then slowly add the A solution to B and mix well.
Prepare a […] perchloric acid solution: take 27 mL of perchloric acid and dilute to 100 mL with distilled water.
The specific steps are as follows: collect the cells in a 1 mL water solution and lyse the cells using a homogenizer; adjust the pH to neutral, dilute to 3 mL, add activated carbon to centrifuge; take 1 mL supernatant, add 1 mL solution 1 (1 mL citrate buffer and 1 mL 0.05 mol/L chloramine T solution), stand for 10 minutes, add 1 mL of perchloric acid, stand for 5 minutes, add 1 mL of p-dimethylaminobenzaldehyde reagent, keep in 60° C. water bath for 15 minutes; centrifuge at 3500 rpm/min for 10 minutes, take the supernatant to measure the absorbance value at a wavelength of 550 nm.
The test was repeated 3 times independently, and the inhibition rate was calculated as follows: inhibition rate (%)=(1−experimental group absorbance/model group absorbance)×100%.

adenovirus concentrate = assay: Mouse pneumonia model, viral; type: in vivo, BALB/C mice; conditions: mean ± SD
Experimental: (§1) The mouse pneumonia model was successfully established by the nose-drop method. To build the mouse pneumonia model, BALB/C mice with a body mass of 16-22 g were selected and anesthetized pneumonia chain was prepared after anesthesia with ether on day 0, day 1, and day 2. Staphylococcal fluid, adenovirus concentrate, Mycoplasma pneumoniae, Chlamydia pneumoniae, protozoa, and pneumonia fungi were slowly dripped into the nasal cavity of the mice, so that they enter the tracheobronchial. During the operation process, care was exercised to prevent bacterial fluid from flowing into the esophagus, which leads to inactivation the bacterial fluid. After successful model establishment, the polypeptides of the present invention were administered, and the results were shown in Table 5. […] The results were expressed in average value±standard deviation.

protozoa = assay: Mouse pneumonia model, protozoal; type: in vivo, BALB/C mice; parameters: concentration or dose not given beside the values; conditions: mean ± SD
Experimental: as §1

Adenosquamous carcinoma = assay: MTT assay, lung cancer tumor cells; type: cell-based, human; parameters: concentration or dose not given beside the values; conditions: 48 h, mean ± SD
Experimental: (§2) The inhibition of the growth of human lung cancer tumor cells by the polypeptide of the present invention was examined by MTT assay. The lung cancer tumor cells were cultured in a 37° C., 5% (volume fraction) CO2 incubator to a density of 90% or more, and collected by trypsinization. The cells were resuspended in the culture medium and counted under a microscope to adjust the cell concentration to 2.0×10^4 cells/mL, the cell suspension was inoculated into a 96-well plate at 100 μL per well, and cultured overnight at 37° C. in a 5% (volume fraction) CO2 incubator. After the cells were completely adhered, the polypeptide of the present invention was added as a drug-administered group, and a culture solution containing no drug was used as a blank control group, and the culture solution was diluted to each predetermined concentration. Each dilution was separately added to a 96-well plate at 100 μL per well and incubated for 48 h at 37° C. in a 5% (volume fraction) CO2 incubator. 20 μL of 5 mg/mL MTT was added to each well of a 96-well plate, and incubation was continued for 4 hours. The medium was aspirated, and the cells were dissolved in 100 μL of DMSO per well. The absorbance was measured by a microplate reader at a detection wavelength of 570 nm and a reference wavelength of 630 nm, and the growth inhibition rate was calculated as follows: tumor growth inhibition rate (%)=(1−administered group absorbance value/unadministered group absorbance value)×100%, and the experiment was repeated 3 times independently. The results obtained by the test were expressed as mean±standard deviation. The results in Table 6 indicate that the polypeptides of the present invention have a good inhibitory effect on proliferation of a variety of human lung cancer tumors (FIG. 5).

Large cell lung cancer = assay: MTT assay, lung cancer tumor cells; type: cell-based, human; parameters: concentration or dose not given beside the values; conditions: 48 h, mean ± SD
Experimental: as §2

Adenocarcinoma = assay: MTT assay, lung cancer tumor cells; type: cell-based, human; parameters: concentration or dose not given beside the values; conditions: 48 h, mean ± SD
Experimental: as §2

[2] = test system: Non-small cell lung cancer; assay: MTT assay, lung cancer tumor cells; type: cell-based, human; parameters: concentration or dose not given beside the values; conditions: 48 h, mean ± SD
Experimental: as §2

Squamous cell carcinoma = assay: MTT assay, lung cancer tumor cells; type: cell-based, human; parameters: concentration or dose not given beside the values; conditions: 48 h, mean ± SD
Experimental: as §2

Small Cell Lung Cancer = assay: MTT assay, lung cancer tumor cells; type: cell-based, human; parameters: concentration or dose not given beside the values; conditions: 48 h, mean ± SD
Experimental: as §2

Substance	effect on content of hydroxyproline in lung fibrosis model cells (FIG. 1-3), in words [1]	Hydroxyproline Content Inhibition Rate in the Pulmonary Fibrosis Model ([1]; 4 uM)	Hydroxyproline Content Inhibition Rate in the Pulmonary Fibrosis Model ([1]; 8 uM)	Inhibitory Effects on Various Pulmonary Infections (adenovirus concentrate)	Inhibitory Effects on Various Pulmonary Infections (protozoa)	tumor growth inhibition rate, MTT Assay (Adenosquamous carcinoma)	tumor growth inhibition rate, MTT Assay (Large cell lung cancer)	tumor growth inhibition rate, MTT Assay (Adenocarcinoma)	tumor growth inhibition rate, MTT Assay [2]	tumor growth inhibition rate, MTT Assay (Squamous cell carcinoma)	tumor growth inhibition rate, MTT Assay (Small Cell Lung Cancer)
Arg-Gly-Asp-Gly-Gly-Gly-Gly-Ile-Val-Arg-Arg-Ala-Asp-Arg-Ala-Ala-Val-Pro-Gly-Gly-Gly-Gly-Pro-(D-Pyr)-(D-Cys)-Bip-Arg-Gly-Glu [Polypeptide IV]	can inhibit the content of hydroxyproline in lung fibrosis model cells	33.09%	47.28%	59.10 ± 18.42%	62.44 ± 24.16%	60.53 ± 16.36%	88.92 ± 19.05%	88.65 ± 17.86%	93.66 ± 23.44%	67.13 ± 12.69%	71.14 ± 17.19%
Arg-Gly-Asp-Gly-Gly-Gly-Gly-Pro-(D-Pyr)-(D-Cys)-Bip-Arg-Gly-Glu-Gly-Gly-Gly-Gly-Ile-Val-Arg-Arg-Ala-Asp-Arg-Ala-Ala-Val-Pro [Polypeptide III]	can inhibit the content of hydroxyproline in lung fibrosis model cells	30.66%	56.21%	62.17 ± 17.51%	65.68 ± 18.50%	63.67 ± 11.60%	93.53 ± 17.04%	93.25 ± 16.99%	91.58 ± 17.95%	70.61 ± 12.86%	74.83 ± 13.63%
Ile-Val-Arg-Arg-Ala-Asp-Arg-Ala-Ala-Val-Pro-Gly-Gly-Gly-Gly-Arg-Gly-Asp-Gly-Gly-Gly-Gly-Pro-(D-Pyr)-(D-Cys)-Bip-Arg-Gly-Glu [Polypeptide V]	can inhibit the content of hydroxyproline in lung fibrosis model cells	34.47%	49.25%	50.35 ± 15.73%	53.19 ± 20.63%	51.56 ± 13.97%	75.74 ± 16.27%	75.52 ± 15.25%	79.78 ± 20.01%	57.18 ± 10.83%	60.60 ± 14.68%
Ile-Val-Arg-Arg-Ala-Asp-Arg-Ala-Ala-Val-Pro-Gly-Gly-Gly-Gly-Pro-(D-Pyr)-(D-Cys)-Bip-Arg-Gly-Glu-Gly-Gly-Gly-Gly-Arg-Gly-Asp [Polypeptide II]	can inhibit the content of hydroxyproline in lung fibrosis model cells	31.28%	57.35%	57.35 ± 16.34%	60.59 ± 17.27%	58.73 ± 10.82%	86.28 ± 15.90%	86.03 ± 15.85%	90.88 ± 16.75%	65.14 ± 12.00%	69.03 ± 12.72%
